The values that follow come from patent US7405314B2 (priority 2004, dated 2008).

Data set [1] has as its system Swiss Webster mice. The conditions noted are these: mouse, in vivo.
For data set [2], the system named is HL60 human leukemia cells. Format: cell-based.
The test system of data set [3] is normal donor cells.
Data set [4] has as its system mice. The following applies: mouse, in vivo.
For data set [5], the system named is panel of 60 tumor cell lines. Format: cell-based, human.
Data set [6] has as its system U937/PR9 cells (PML/RAR alpha). The class given is cell-based, human.
In data set [7] the test system is HL60 cells. Format: cell-based, human.

Structures are written as SMILES.

Turning to `C[As](C)SC[C@H](NC(=O)CC[C@H](N)C(=O)O)C(=O)NCC(=O)O` [SGLU1, S-(Dimethylarsino) Glutathione], the tolerability result in data set [1] is reported as “tolerated”. The “induction of apoptosis (annexin V staining), events involved” value in data set [2] was “involves change of the potential of mitochondrial membrane (CMXRos staining) and activation of caspases”. Further, the “toxicity to normal cells compared with arsenic trioxide” value in data set [3] is recorded as “less toxic then arsenic trioxide”. Moreover, the “doses at which deaths occurred” value in data set [4] (both, iv) is 250, 300, and 350 mg/kg/day. Moreover, the “no-observable-effect level for female mice” value in data set [4] (female, iv) was found to be 150 mg/kg. In addition, the “no-observable-effect level (NOEL) for male mice” value in data set [4] (male, iv) is given as 100 mg/kg/day. Besides, the “testicular seminiferous tubular degeneration, incidence” value in data set [4] (150 mg/kg/day) is given as “⅕”. Further, the “centrilobular hypertrophy of hepatocytes, incidence” value in data set [4] (200 mg/kg/day) was “⅕”. In data set [4] (iv), the “organs with compound-related lesions” value was “lung, liver, thymus, and testes”; the “sex difference in susceptibility (deaths)” value is listed as “female mice being more susceptible than males”. Besides, the “anticancer activity against tumor cell line panel” value in data set [5] is reported as “evidence of activity at low concentrations”. For the same compound, in data set [6], the “influence of functional PML/Rar alpha gene on sensitivity of the cells” value is listed as “no influence on the sensitivity”. For the same compound, the cell cycle disturbance entry in data set [7] is recorded as “marked accumulation of cells in S-phase”.
